Reference: patent publication US6630473B1, “Anti-inflammatory agents and inhibitors against increase in ocular tension caused by irradiation with lasers, containing 1,4-dihydropyridine derivatives” (Senju Pharmaceutical Co., Ltd., priority 1999, dated 2003)
“And” between values parts separate entries of the source, which are not always exact repeats. Equal values may be shown once. Where a name gives a salt, the structure may show the parent alone.

How the values were obtained:
[1] = system: intraocular inflammation induced by photocoagulation of iris due to argon laser irradiation; test: Anterior chamber protein concentration (laser flare cell meter) after argon laser irradiation of iris; type: in vivo, Male Dutch colored house rabbits; conditions: for protein concentration after laser irradiation, Treated eye / protein concentration after laser irradiation, Non-treated eye: mean ± SE (n = 4); for protein concentration after laser irradiation: intravenous 500 μg/500 μl/kg at 30 minutes and immediately before laser irradiation, mean ± standard error (n = 4)
From the text: (§1) The effect of the inventive compound on intraocular inflammation and rise of intraocular pressure induced by photocoagulation of iris due to argon laser irradiation was examined. As regards intraocular inflammation, the anterior chamber protein concentration (photon/msec) was used as an index. Male Dutch colored house rabbits weighing about 2 kg purchased from Fukusaki Rabbit Breeding Cooperative were used for the test, after confirmation of absence of abnormality. The rabbits were raised at temperature of 23±3° C., humidity of 55±10% on a solid feed (the NOSAN GROUP: Labo R Stock, NIHON NOSAN) 100 g a day, allowing free access to tap water. […] The argon laser was irradiated in the middle of both eyes between limbus and the base of iris at 5 sites at the same intervals, under the conditions of size: 200 μm, irradiation time (duration): 0.5 sec, output (power): 0.35 W. To remove the effect of fibrin that occurs after laser irradiation, heparin (1000 U/kg) was intravenously administered. The increase in the anterior chamber protein concentration caused by ophthalmic inflammation was measured with a laser flare cell meter (Kowa Co., Ltd.) immediately before, 30 minutes after and 1 hour after laser irradiation. Nicardipine hydrochloride was intravenously administered at 30 minutes and immediately before laser irradiation by 500 μg/500 μl/kg. Heparin was administered 5 minutes after the first administration of nicardipine hydrochloride. Heparin was administered to the control group at 30 minutes before laser irradiation. Into one eye of the house rabbits was instilled 0.05% and 0.1% iganidipine hydrochloride and 0.1% nicardipine hydrochloride, and into each opposite eye was instilled physiological saline by 10 μl at 30 minutes before laser irradiation. The eye instilled with the test material was taken as the treated eye, and the opposite eye instilled with physiological saline was taken as the non-treated eye. In view of the influence of the test material on the opposite eye, the control eyes were prepared, wherein physiological saline was instilled into one eye, and the other eye was not treated, respectively taken as the control of the treated eye and the control of the non-treated eye. Heparin was intravenously administered immediately after instillation of the test material and physiological saline.

[2] = system: rise of intraocular pressure induced by photocoagulation of iris due to argon laser irradiation; test: Intraocular pressure (pneumatonograph) after argon laser irradiation of iris; type: in vivo, Male Dutch colored house rabbits
From the text: as §1, with “intraocular pressure of” for “increase in”, “both eyes” for “anterior chamber protein concentration caused by ophthalmic inflammation”, “measured” for “measured with a laser flare cell meter (Kowa Co., Ltd.)”, “before” for “before, 30 minutes after”, “0.25, 0.5, 1, 2, 3 and 4 hours” for “1 hour”

[3] = system: experimental endophthalmitis induced by photocoagulation of iris by the argon laser; conditions: literature report; nicardipine by intravenous administration; cited from earlier work
[4] = system: prostaglandin E2 (PGE2) induced inflammatory responses in the anterior uveal tissues and rise of intraocular pressure; conditions: systemic administration before administration of PGE2; cited from earlier work

With `C=CCN1CCN(CC(C)(C)COC(=O)C2=C(C)NC(C)=C(C(=O)OC)C2c2cccc([N+](=O)[O-])c2)CC1.Cl.Cl` (stereo not drawn) [iganidipine hydrochloride, 3-(4-allyl-1-piperazinyl)-2,2-dimethylpropyl methyl 2,6-dimethyl-4-(m-nitrophenyl)-1,4-dihydropyridine-3,5-dicarboxylate dihydrochloride] the “protein concentration after laser irradiation, Treated eye” value ([1]; instillation of 0.05% iganidipine hydrochloride 10 μl 30 minutes before laser, time 0 min) was 20.55 ± 5.02 /msec, the “protein concentration after laser irradiation, Treated eye” value ([1]; instillation of 0.05% iganidipine hydrochloride 10 μl 30 minutes before laser, time 30 min, dihydrochloride) was 73.8 /msec and 73.75 ± 8.67 /msec and the “protein concentration after laser irradiation, Treated eye” value ([1]; instillation of 0.05% iganidipine hydrochloride 10 μl 30 minutes before laser, time 60 min) was 284.10 ± 17.03 /msec. The “protein concentration after laser irradiation, Treated eye” value ([1]; instillation of 0.1% iganidipine hydrochloride 10 μl 30 minutes before laser, time 0 min) was 19.18 ± 2.37 /msec, the “protein concentration after laser irradiation, Treated eye” value ([1]; instillation of 0.1% iganidipine hydrochloride 10 μl 30 minutes before laser, time 30 min, dihydrochloride) was 84.7 /msec and 84.70 ± 29.66 /msec and the “protein concentration after laser irradiation, Treated eye” value ([1]; instillation of 0.1% iganidipine hydrochloride 10 μl 30 minutes before laser, time 60 min) was 227.18 ± 10.03 /msec. The “protein concentration after laser irradiation, Non-treated eye” value (“protein concentration … Non-treated eye” below) ([1]; opposite eye (physiological saline) from eye instilled with 0.05% iganidipine hydrochloride, time 0 min) was 11.73 ± 2.97 /msec, the “protein concentration … Non-treated eye” value ([1]; opposite eye (physiological saline) from eye instilled with 0.05% iganidipine hydrochloride, time 30 min) was 68.53 ± 14.40 /msec and the “protein concentration … Non-treated eye” value ([1]; opposite eye (physiological saline) from eye instilled with 0.05% iganidipine hydrochloride, time 60 min) was 313.13 ± 27.06 /msec. For the same compound, the “protein concentration … Non-treated eye” value ([1]; opposite eye (physiological saline) from eye instilled with 0.1% iganidipine hydrochloride, time 0 min) was 16.03 ± 2.97 /msec, the “protein concentration … Non-treated eye” value ([1]; opposite eye (physiological saline) from eye instilled with 0.1% iganidipine hydrochloride, time 30 min) was 117.33 ± 31.50 /msec and the “protein concentration … Non-treated eye” value ([1]; opposite eye (physiological saline) from eye instilled with 0.1% iganidipine hydrochloride, time 60 min) was 244.45 ± 39.46 /msec. For the same compound, the “time to restore to the original intraocular pressure” value ([2]; eye instilled with 0.05%) was 90 min, the “rise of intraocular pressure from the initial value” ([2]; eye instilled with 0.05%, 30 minutes from laser irradiation (FIG. 3)) was 6 mmHg and the “time to restore to the original intraocular pressure” value ([2]; eye instilled with 0.1%) was 120 min. For the same compound, the “rise of intraocular pressure from the initial value” ([2]; eye instilled with 0.1%, 30 minutes from laser irradiation (FIG. 2)) was 7.5 mmHg and the “intraocular pressure of opposite (non-treated) eye compared with control group” value ([2]; eye instilled with physiological saline opposite to the test-material eye, 3 hours after irradiation) was “more significant decrease”.
For `COC(=O)C1=C(C)NC(C)=C(C(=O)OCCN(C)Cc2ccccc2)C1c1cccc([N+](=O)[O-])c1` (stereo not drawn) [nicardipine hydrochloride], the “effect on experimental endophthalmitis induced by argon laser photocoagulation of iris” value [3] is given as “inhibited experimental endophthalmitis”, the “effect on PGE2-induced inflammatory responses and temporary rise of intraocular pressure” value [4] is given as “inhibits these responses in a dose-dependent manner” and the “anterior chamber protein concentration compared with control group” value ([1]; eye instilled with 0.1%, 30 minutes after laser irradiation) is given as “without difference from the control group”. For the same compound, the “protein concentration after laser irradiation, Treated eye” value ([1]; instillation of 0.1% nicardipine hydrochloride 10 μl 30 minutes before laser, time 0 min) was 20.55 ± 5.02 /msec, the “protein concentration after laser irradiation, Treated eye” value ([1]; instillation of 0.1% nicardipine hydrochloride 10 μl 30 minutes before laser, time 30 min, hydrochloride) was 184.1 /msec and 184.05 ± 35.1 /msec and the “protein concentration after laser irradiation, Treated eye” value ([1]; instillation of 0.1% nicardipine hydrochloride 10 μl 30 minutes before laser, time 60 min) was 337.23 ± 46.4 /msec. For the same compound, the “protein concentration after laser irradiation” value ([1]; time 0 min) was 15.53 ± 0.14 /msec, the “protein concentration after laser irradiation” value ([1]; time 30 min, hydrochloride) was 58.1 /msec and 58.08 ± 18.14 /msec and the “protein concentration after laser irradiation” value ([1]; time 60 min) was 30.85 ± 2.58 /msec. The “protein concentration … Non-treated eye” value ([1]; opposite eye (physiological saline) from eye instilled with 0.1% nicardipine hydrochloride, time 0 min) was 11.73 ± 2.97 /msec, the “protein concentration … Non-treated eye” value ([1]; opposite eye (physiological saline) from eye instilled with 0.1% nicardipine hydrochloride, time 30 min) was 118.93 ± 21.21 /msec and the “protein concentration … Non-treated eye” value ([1]; opposite eye (physiological saline) from eye instilled with 0.1% nicardipine hydrochloride, time 60 min) was 349.85 ± 23.02 /msec. The “effect on the rise of intraocular pressure after laser irradiation” value ([2]; eye instilled with 0.1% (FIG. 4)) was “significant inhibition of the rise of intraocular pressure”, the intraocular pressure ([2]; intravenous administration group, 30 minutes after the irradiation (FIG. 1)) was 24.2 mmHg and the intraocular pressure ([2]; intravenous administration group, 1 hour after the irradiation (FIG. 1)) was 20.8 mmHg. The “time until which the intraocular pressure effect was sustained” value ([2]; intravenous administration group, after the irradiation) was 4 h, the “decrease of intraocular pressure” value ([2]; intravenous administration group, at 1 hour after the irradiation versus immediately before laser irradiation) was 9.3 mmHg and the intraocular pressure ([2]; intravenous administration group, immediately before laser irradiation (FIG. 1)) was 30.1 mmHg.
For `COC(=O)C1=C(C#N)NC(C)=C(C(=O)OC(C)C)C1c1cccc([N+](=O)[O-])c1` (stereo not drawn) [nilvadipine], the “effect on PGE2-induced inflammatory responses and temporary rise of intraocular pressure” value [4] is given as “inhibits these responses in a dose-dependent manner”.
